# Assay results: patent publication US10053443B2, “2-phenylbenzofuran derivatives, method for preparing the same and use of the same for treating inflammatory disease” (KOREA RESEARCH INSTITUTE OF BIOSCIENCE AND BIOTECHNOLOGY, priority 2014, dated 2018)
# What was measured:
# [1] = test system: lung tissue sections; test: Histopathological analysis of lung (H&E, PAS) in asthma mice; assay type: in vivo, mouse; settings: OVA asthma Balb/c mice, 5 or 15 mg/kg PO
# Protocol: 6 week old Balb/c female mice in the average weight of 20 g were adapted for 1 week. 2 mg of aluminum hydroxide (A8222, Sigma, St. Louis, Mo.) and 20 μg of ovalbumin (A5503, sigma, St. Louis, Mo.) were suspended in phosphate buffer (pH 7.4). Each mouse was administered with 200 μl of the phosphate buffer suspension via intraperitoneal injection for sensitization at 2 weeks intervals. The mouse was forced to inhale 1% ovalbumin (OVA) through ultrasonic atomizer for 30 minutes a day for 3 days after the first intraperitoneal injection of ovalbumin. 24 hours after the antigen administration, airway hyperreactivity was measured. 48 hours later, a lethal dose of pentobarbital (Entobar, Hanlim Pharma. Co., Ltd.) was administered to the mouse. The bronchus was opened and the alveoli were washed with 1.4 ml of saline. Then, the test samples were obtained. The normal control (NC) was not administered with ovalbumin nor inhaled. The asthma induced group (OVA) was administered with ovalbumin and inhaled to induce bronchial asthma. […]
# To evaluate the level of mucus production by investigating the increase of the number of goblet cells, the mucus secretion cells, the lung was extracted from the mouse without bronchoalveolar lavage. […] The proliferation of goblet cells was evaluated by measuring the ratio of the goblet cells selected by the staining above in bronchial epithelial cells.
# [2] = Toxicity test, single oral administration: toxicological changes in abdomen, chest and major organs (autopsy); assay type: in vivo; settings: for Clinical sign: Abdominal cavity (toxicological changes, animals affected/total) / Clinical sign: Major organs (toxicological changes, animals affected/total) / Clinical sign: Thoracic cavity (toxicological changes, animals affected/total) / Mortality (animals dead/total) / Clinical sign: Abdominal cavity (toxicological changes), Total / Clinical sign: Major organs (toxicological changes), Total / Clinical sign: Thoracic cavity (toxicological changes), Total / Mortality, Total: single oral administration, mouse
# Excerpt: 1. Test Material and Control Material • Test material: compound of Example 4 • Storage condition: frozen storage • Control material: 10% DMSO+10% Tween 20 in PBS
# 2. Test System • Animal: female Balb/c • Animal provider: Koatech • Age and weight of animal • Age at the time of arrival: 5 week • Number at the time of arrival: 28 • Age at the start of administration: 6 week • Number at the start of administration: 28 ? • Weight at the start of administration: 16.1˜16.5 g
# 3. Administration Method and Preparation of Test Material • Administration method: single oral administration • Preparation of test material: Test materials were prepared by using 10% DMSO+10% Tween-20 in PBS as a solvent for each dose. The preparation was carried out immediately before the administration
# On the 10th day after the administration, all the surviving animals were anesthetized with CO2 gas. Laparotomy was performed and the animals were sacrificed by venesection from the abdominal aorta. Then, all the internal organs of the animal were observed by the naked eye.
# The compound of Example 4 was orally administered once to female Balb/c mouse at the doses of 250, 500, and 1000 mg/kg in order to obtain the information on acute toxicity of the compound of Example 4, followed by investigation of death rate, general symptoms, and weight changes for 10 days by autopsy.
# After the administration of the compound of Example 4, the mice were autopsied on the last day, and the toxicological changes in the abdomen, chest and major organs were observed.
smiles,measurement,setting,value
"COc1cc(CCCO)cc2cc(-c3ccc(C)cc3)oc12 [Example 4, 3-(7-methoxy-2-p-tolylbenzofuran-5-yl)propane-1-ol]",accumulation of inflammatory cells around bronchiole (H&E),[1]; FIG. 6,significantly reduced
same,"proliferation of goblet cells (PAS, mucus production)",[1]; FIG. 7,significantly reduced
same,"Clinical sign: Abdominal cavity (toxicological changes, animals affected/total)","[2]; 250 mg/kg, Day 1",0/7
same,"Clinical sign: Major organs (toxicological changes, animals affected/total)","[2]; 250 mg/kg, Day 1",0/7
same,"Clinical sign: Thoracic cavity (toxicological changes, animals affected/total)","[2]; 250 mg/kg, Day 1",0/7
same,Mortality (animals dead/total),"[2]; 250 mg/kg, Day 1",0/7
same,"Clinical sign: Abdominal cavity (toxicological changes, animals affected/total)","[2]; 250 mg/kg, Day 7",0/7
same,"Clinical sign: Major organs (toxicological changes, animals affected/total)","[2]; 250 mg/kg, Day 7",0/7
same,"Clinical sign: Thoracic cavity (toxicological changes, animals affected/total)","[2]; 250 mg/kg, Day 7",0/7
same,Mortality (animals dead/total),"[2]; 250 mg/kg, Day 7",0/7
same,"Clinical sign: Abdominal cavity (toxicological changes, animals affected/total)","[2]; 250 mg/kg, Day 8",0/7
same,"Clinical sign: Major organs (toxicological changes, animals affected/total)","[2]; 250 mg/kg, Day 8",0/7
same,"Clinical sign: Thoracic cavity (toxicological changes, animals affected/total)","[2]; 250 mg/kg, Day 8",0/7
same,Mortality (animals dead/total),"[2]; 250 mg/kg, Day 8",0/7
same,"Clinical sign: Abdominal cavity (toxicological changes, animals affected/total)","[2]; 250 mg/kg, Day 9",0/7
same,"Clinical sign: Major organs (toxicological changes, animals affected/total)","[2]; 250 mg/kg, Day 9",0/7
same,"Clinical sign: Thoracic cavity (toxicological changes, animals affected/total)","[2]; 250 mg/kg, Day 9",0/7
same,Mortality (animals dead/total),"[2]; 250 mg/kg, Day 9",0/7
same,"Clinical sign: Abdominal cavity (toxicological changes, animals affected/total)","[2]; 250 mg/kg, Day 10",0/7
same,"Clinical sign: Major organs (toxicological changes, animals affected/total)","[2]; 250 mg/kg, Day 10",0/7
same,"Clinical sign: Thoracic cavity (toxicological changes, animals affected/total)","[2]; 250 mg/kg, Day 10",0/7
same,Mortality (animals dead/total),"[2]; 250 mg/kg, Day 10",0/7
same,"Clinical sign: Abdominal cavity (toxicological changes), Total",[2]; 250 mg/kg,0
same,"Clinical sign: Major organs (toxicological changes), Total",[2]; 250 mg/kg,0
same,"Clinical sign: Thoracic cavity (toxicological changes), Total",[2]; 250 mg/kg,0
same,"Mortality, Total",[2]; 250 mg/kg,0
same,"Clinical sign: Abdominal cavity (toxicological changes, animals affected/total)","[2]; 500 mg/kg, Day 1",0/7
same,"Clinical sign: Major organs (toxicological changes, animals affected/total)","[2]; 500 mg/kg, Day 1",0/7
same,"Clinical sign: Thoracic cavity (toxicological changes, animals affected/total)","[2]; 500 mg/kg, Day 1",0/7
same,Mortality (animals dead/total),"[2]; 500 mg/kg, Day 1",0/7
same,"Clinical sign: Abdominal cavity (toxicological changes, animals affected/total)","[2]; 500 mg/kg, Day 7",0/7
same,"Clinical sign: Major organs (toxicological changes, animals affected/total)","[2]; 500 mg/kg, Day 7",0/7
same,"Clinical sign: Thoracic cavity (toxicological changes, animals affected/total)","[2]; 500 mg/kg, Day 7",0/7
same,Mortality (animals dead/total),"[2]; 500 mg/kg, Day 7",0/7
same,"Clinical sign: Abdominal cavity (toxicological changes, animals affected/total)","[2]; 500 mg/kg, Day 8",0/7
same,"Clinical sign: Major organs (toxicological changes, animals affected/total)","[2]; 500 mg/kg, Day 8",0/7
same,"Clinical sign: Thoracic cavity (toxicological changes, animals affected/total)","[2]; 500 mg/kg, Day 8",0/7
same,Mortality (animals dead/total),"[2]; 500 mg/kg, Day 8",0/7
same,"Clinical sign: Abdominal cavity (toxicological changes, animals affected/total)","[2]; 500 mg/kg, Day 9",0/7
same,"Clinical sign: Major organs (toxicological changes, animals affected/total)","[2]; 500 mg/kg, Day 9",0/7
same,"Clinical sign: Thoracic cavity (toxicological changes, animals affected/total)","[2]; 500 mg/kg, Day 9",0/7
same,Mortality (animals dead/total),"[2]; 500 mg/kg, Day 9",0/7
same,"Clinical sign: Abdominal cavity (toxicological changes, animals affected/total)","[2]; 500 mg/kg, Day 10",0/7
same,"Clinical sign: Major organs (toxicological changes, animals affected/total)","[2]; 500 mg/kg, Day 10",0/7
same,"Clinical sign: Thoracic cavity (toxicological changes, animals affected/total)","[2]; 500 mg/kg, Day 10",0/7
same,Mortality (animals dead/total),"[2]; 500 mg/kg, Day 10",0/7
same,"Clinical sign: Abdominal cavity (toxicological changes), Total",[2]; 500 mg/kg,0
same,"Clinical sign: Major organs (toxicological changes), Total",[2]; 500 mg/kg,0
same,"Clinical sign: Thoracic cavity (toxicological changes), Total",[2]; 500 mg/kg,0
same,"Mortality, Total",[2]; 500 mg/kg,0
same,"Clinical sign: Abdominal cavity (toxicological changes, animals affected/total)","[2]; 1000 mg/kg, Day 1",0/7
same,"Clinical sign: Major organs (toxicological changes, animals affected/total)","[2]; 1000 mg/kg, Day 1",0/7
same,"Clinical sign: Thoracic cavity (toxicological changes, animals affected/total)","[2]; 1000 mg/kg, Day 1",0/7
same,Mortality (animals dead/total),"[2]; 1000 mg/kg, Day 1",0/7
same,"Clinical sign: Abdominal cavity (toxicological changes, animals affected/total)","[2]; 1000 mg/kg, Day 7",0/7
same,"Clinical sign: Major organs (toxicological changes, animals affected/total)","[2]; 1000 mg/kg, Day 7",0/7
same,"Clinical sign: Thoracic cavity (toxicological changes, animals affected/total)","[2]; 1000 mg/kg, Day 7",0/7
same,Mortality (animals dead/total),"[2]; 1000 mg/kg, Day 7",0/7
same,"Clinical sign: Abdominal cavity (toxicological changes, animals affected/total)","[2]; 1000 mg/kg, Day 8",0/7
same,"Clinical sign: Major organs (toxicological changes, animals affected/total)","[2]; 1000 mg/kg, Day 8",0/7
same,"Clinical sign: Thoracic cavity (toxicological changes, animals affected/total)","[2]; 1000 mg/kg, Day 8",0/7
same,Mortality (animals dead/total),"[2]; 1000 mg/kg, Day 8",0/7
same,"Clinical sign: Abdominal cavity (toxicological changes, animals affected/total)","[2]; 1000 mg/kg, Day 9",0/7
same,"Clinical sign: Major organs (toxicological changes, animals affected/total)","[2]; 1000 mg/kg, Day 9",0/7
same,"Clinical sign: Thoracic cavity (toxicological changes, animals affected/total)","[2]; 1000 mg/kg, Day 9",0/7
same,Mortality (animals dead/total),"[2]; 1000 mg/kg, Day 9",0/7
same,"Clinical sign: Abdominal cavity (toxicological changes, animals affected/total)","[2]; 1000 mg/kg, Day 10",0/7
same,"Clinical sign: Major organs (toxicological changes, animals affected/total)","[2]; 1000 mg/kg, Day 10",0/7
same,"Clinical sign: Thoracic cavity (toxicological changes, animals affected/total)","[2]; 1000 mg/kg, Day 10",0/7
same,Mortality (animals dead/total),"[2]; 1000 mg/kg, Day 10",0/7
same,"Clinical sign: Abdominal cavity (toxicological changes), Total",[2]; 1000 mg/kg,0
same,"Clinical sign: Major organs (toxicological changes), Total",[2]; 1000 mg/kg,0
same,"Clinical sign: Thoracic cavity (toxicological changes), Total",[2]; 1000 mg/kg,0
same,"Mortality, Total",[2]; 1000 mg/kg,0
same,"toxicological changes (abdomen, chest and major organs)","[2]; 250, 500, 1000 mg/kg single oral, autopsy on last day",not observed
